The record followed here is patent US10301320B2, “Compositions and methods of modulating 15-PGDH activity” (CASE WESTERN RESERVE UNIVERSITY, priority 2012, dated 2019).

The subject of assay [1] is 15-PGDH-luciferase fusion reporter in V9m, LS174T and V503 cell lines. Nature of the assay: 15-PGDH-luciferase fusion gene reporter induction in three colon cancer cell lines (stated jointly). In kind it is cell-based.
In assay [2] the target is recombinant 15-PGDH protein (Homo sapiens (Human), UniProt P15428). Nature of the assay: Inhibition of enzymatic activity of recombinant 15-PGDH in vitro.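 Note: activity of recombinant human 15-PGDH assayed in vitro using PGE2 as the substrate.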 In kind it is biochemical.
A further assay deals with A549 cells. In words: PGE2 levels in medium of IL1-beta stimulated A549 cells. Particulars: for Effect on PGE2 levels in medium, in words: IL1-beta stimulated A549 cells. In kind it is cell-based.
In assay [3] the test system is V9m reporter cell line expressing a 15-PGDH luciferase fusion construct. In words: 15-PGDH-luciferase fusion gene reporter induction, V9m cell line. Type of assay: cell-based. Particulars: for percent reporter induction over basal at […]: read-out: V9M-SC3 Reporter activity % ([…]), Table 18, read-out: V9M-SC3 Reporter activity % (7.5 μM). The text has this:
(§1) These cell lines are Vaco-9m (V9m), LS174T, Vaco503 (V503). […] Value of 1.0 on the Y-axis is the basal level of reporter activity in cells treated with drug free DMSO vehicle.
(§2) This Example provides data on a group of structural analogues of SW033291. Data provided includes level of induction of a 15-PGDH-luciferase fusion gene reporter, recorded as % increased luciferase activity over basal level, in three colon cancer cell lines, V9m, V503, and LS174T, engineered to contain the reporter, and treated with either 2.5 uM or 7.5 uM compound (i.e., Values are recorded on a scale where 100 indicates of doubling of luciferase activity over baseline level).
(§3) FIGS. 27(A-C) show graphs that show the level of compound's activity in inducing the 15-PGDH-luciferase fusion reporter in three different test cell line backgrounds, V9m, LS174T, and V503. Each compound was tested at two concentrations, 2.5 uM, and 7.5 uM. Y-axis is luciferase activity.
(§4) Data provided include level of induction of a 15-PGDH-luciferase fusion gene reporter, recorded as % induction of luciferase activity over basal level, in three colon cancer cell lines, V9m, V503, and LS174T, engineered to contain the reporter, and treated with either 2.5 uM or 7.5 uM compound. […] Additionally, for selected compounds is recorded the decrease in PGE2 levels in the media of compound treated A549 cells that have been stimulated with IL-1 beta. Additionally recorded for selected compounds is the effect on A549 cell viability as measured by a CellTiter-Glo assay, and the effect of compounds on A549 cell colony formation.

Assay [4] relates to LS174T reporter cell line expressing a 15-PGDH luciferase fusion construct. Nature of the assay: 15-PGDH-luciferase fusion gene reporter induction, LS174T cell line. In kind it is cell-based. Particulars: Homo sapiens.
Excerpt: as §1, §2, §3, §4

Assay [5] deals with Vaco503 reporter cell line expressing a 15-PGDH luciferase fusion construct. In words: 15-PGDH-luciferase fusion gene reporter induction, Vaco503 (V503) cell line. Type of assay: cell-based.
Excerpt: as §1, §2, §3, §4

Setting [6] is: read-out: Enzyme inhibition % ([…]), recombinant 15-PGDH, […] compound, read-out: Enzyme inhibition % (2.5 μM).
[7] abbreviates: read-out: Enzyme inhibition % ([…]), recombinant 15-PGDH, […] compound, read-out: Enzyme inhibition % (7.5 μM).
Where [8] appears, read: read-out: V9M-SC3 Reporter activity ([…]) (%), Table 18, […], read-out: V9M-SC3 Reporter activity (2.5 μM) (%).
[9] abbreviates: read-out: Ls174T-SC1 reporter activity, % ([…]), Table 18, […], read-out: Ls174T-SC1 reporter activity, % (2.5μM).
Setting [10] is: read-out: Ls174T-SC1 reporter activity, % ([…]), Table 18, […], read-out: Ls174T-SC1 reporter activity, % (7.5 μM).
The mark [11] stands for this setting: read-out: V503-3H9-7 reporter activity, % ([…]), Table 18, […], read-out: V503-3H9-7 reporter activity, % (2.5 μM).
Setting [12] is: read-out: V503-3H9-7 reporter activity, % ([…]), Table 18, […], read-out: V503-3H9-7 reporter activity, % (7.5 μM).
[13] abbreviates: read-out: Enzyme inhibition % ([…]), Table 18, […] compound, read-out: Enzyme inhibition % (2.5 μM).
[14] abbreviates: read-out: Enzyme inhibition % ([…]), Table 18, […] compound, read-out: Enzyme inhibition % (7.5 μM).
[15] abbreviates: read-out: V9M reporter activity ([…]), Table 17, […], % induction over basal level, read-out: V9M reporter activity (2.5 μM).
[16] abbreviates: read-out: V9M reporter activity ([…]), Table 17, […], read-out: V9M reporter activity (7.5 μM).
The mark [17] stands for this setting: read-out: 1S174T reporter activity ([…]), Table 17, […], read-out: 1S174T reporter activity (7.5 μM).
The mark [18] stands for this setting: read-out: LS174T reporter activity ([…]), Table 17, […], read-out: LS174T reporter activity (2.5 μM).
Where [19] appears, read: read-out: V503 reporter activity ([…]), Table 17, […], read-out: V503 reporter activity (2.5 μM).
Where [20] appears, read: read-out: V503 reporter activity ([…]), Table 17, […], read-out: V503 reporter activity (7.5 μM).

Usually inhibition stands for the drop in the measured response relative to a control, in per cent.

“Also recorded” adds a separate entry of the source. Like-named read-outs stand apart in the source and are kept apart here.

recombinant 15-PGDH protein, sequence (P15428 whole entry): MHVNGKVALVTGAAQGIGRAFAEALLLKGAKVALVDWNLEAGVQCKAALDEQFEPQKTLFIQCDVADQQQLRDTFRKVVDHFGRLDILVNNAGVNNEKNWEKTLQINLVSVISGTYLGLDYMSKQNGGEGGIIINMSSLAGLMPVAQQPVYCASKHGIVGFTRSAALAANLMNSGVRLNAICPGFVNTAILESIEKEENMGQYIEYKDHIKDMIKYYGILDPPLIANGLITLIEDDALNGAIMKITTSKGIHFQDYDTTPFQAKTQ

As to `COc1ccc(OC)c(N(CC(=O)Nc2csnc2C)S(=O)(=O)c2ccccc2)c1` [SW203703], in assay [1], the “Induction of 15-PGDH-luciferase reporter, in words” value (“Induction … in words” for short) is “active in inducing the 15-PGDH-luciferase reporter”. For the same molecule, the inhibition at […] came out at 26.5% in assay [2] (setting [6]) and 58.9% in assay [2] (setting [7]). In addition, in the assay with A549 cells, the “Effect on PGE2 levels in medium, in words” value (from here on “Effect on PGE2 levels”) was “show activity in lowering PGE2”.

Turning to `COc1ccc(N(CC(=O)Nc2cccnc2)S(=O)(=O)c2ccccc2)cc1C` [592469-85-7], in assay [3] ([…]), the percent reporter induction over basal at […] was 18.5%. In addition, the activation at […] in assay [3] (setting [8]) was -9.74%; in assay [4] (setting [9]) it was 3.77%; in assay [4] (setting [10]) it was 14%; in assay [5] (setting [11]), 10.2%; in assay [5] (setting [12]) it was 5.3%. Besides, the inhibition at […] amounted to 6.23% in assay [2] (setting [13]) and 17.2% in assay [2] (setting [14]).

For the molecule `COc1ccc(N(CC(=O)Nc2ccccc2Br)S(=O)(=O)c2ccc(NC(C)=O)cc2)cc1` [compound 771064], the activation at […] in assay [3] (setting [15]) was 43.3%; in assay [3] (setting [16]), -19.2%; in assay [4] (setting [17]), -29.6%; in assay [4] (setting [18]), -2.11%; in assay [5] (setting [19]), -13.8%; in assay [5] (setting [20]), -24.8%.

In the case of `COc1ccc(S(=O)(=O)N(CC(=O)N2CCCCCC2)c2cc(OC)ccc2OC)cc1` [SW207998], in assay [1], the “Induction … in words” value was “activity equal to, or in some assays greater than, SW054384; also recorded: active in inducing the 15-PGDH-luciferase reporter”. Further, the “Inhibition of recombinant 15-PGDH, in words” value (from here on “Inhibition … in words”) in assay [2] was “much less inhibition of enzymatic activity of 15-PGDH; also recorded: lesser inhibitory activity at high concentration”. For the same molecule, the inhibition at […] worked out at 8.09% in assay [2] (setting [6]) and 14.4% in assay [2] (setting [7]). In addition, in the assay with A549 cells (100 nM drug, 15-PGDH activators), the “Reduction in levels of PGE2 in the medium, ranking” value was “greatest reduction in levels of PGE2”.

Take `CCCC[S+]([O-])c1sc2nc(-c3nccs3)cc(-c3ccccc3)c2c1N` (stereo not drawn) [SW208066, 2-(butylsulfinyl)-4-phenyl-6-(thiazol-2-yl)thieno[2,3-b]pyridin-3-amine]: the “V9M reporter activity ([…])” value in assay [3] ([…], % increased luciferase activity over basal level) worked out at 111.63%; in assay [3] ([…], % increased luciferase activity over basal level, 100 = doubling), 122.72%. Also, the “PGE2 levels in the medium, ranking” value with A549 cells (100 nM drug, 15-PGDH inhibitors) is “highest levels of PGE2”.

For `C[S+]([O-])c1sc2nc(-c3cccs3)cc(-c3ccccc3)c2c1N` (stereo not drawn) [SW208079, 2-(methylsulfinyl)-4-phenyl-6-(thiophen-2-yl)thieno[2,3-b]pyridin-3-amine], the “Induction … in words” value in assay [1] is listed as “marked loss of activity in inducing the cell line reporters”.

For `COc1ccc(OC)c(N(CC(=O)Nc2cccnc2)S(=O)(=O)c2ccc(F)cc2)c1` [SW203736], the “Induction … in words” value in assay [1] is on record as “active in inducing 15-PGDH-luciferase reporter activity; also recorded: active in inducing the 15-PGDH-luciferase reporter”. The “Inhibition … in words” value in assay [2] is recorded as “lesser inhibitory activity at high concentration”. Besides, the inhibition at […] was 1.7% in assay [2] (setting [6]) and 24.9% in assay [2] (setting [7]). Further, the “Effect on PGE2 levels” value with A549 cells is “show activity in lowering PGE2”.

For `COc1ccc(OC)c(N(CC(=O)Nc2cccnc2)S(=O)(=O)c2ccc(Br)cc2)c1` [SW203737], the “Induction … in words” value in assay [1] was “active in inducing 15-PGDH-luciferase reporter activity; also recorded: active in inducing the 15-PGDH-luciferase reporter”. Moreover, the figures for the inhibition at […] in assay [2] (setting [6]) and in assay [2] (setting [7]) were 23.8% and 42.5%, respectively. In addition, in the assay on A549 cells, the “Effect on PGE2 levels” value is “show activity in lowering PGE2”.

On to `Nc1c(C(=O)O)sc2nc(-c3cccs3)cc(-c3ccccc3)c12` [SW206979, 3-Amino-4-phenyl-6-(thiophen-2-yl)thieno[2,3-b]pyridine-2-carboxylic acid], for which the activation at […] in assay [3] (read-out: V9M reporter activity ([…]), […], % increased luciferase activity over basal level, 100 = doubling, read-out: V9M reporter activity (2.5 uM)) was -12.6%; in assay [3] (read-out: V9M reporter activity ([…]), […], % increased luciferase activity over basal level, read-out: V9M reporter activity (7.5 uM)), -20.6%; in assay [4] (read-out: LS174T reporter activity ([…]), […], % increased luciferase activity over basal level, read-out: LS174T reporter activity (2.5 uM)), 34.3%; in assay [4] (read-out: LS174T reporter activity ([…]), […], % increased luciferase activity over basal level, read-out: LS174T reporter activity (7.5 uM)) it was 32.8%; in assay [5] (read-out: V503 reporter activity ([…]), […], % increased luciferase activity over basal level, read-out: V503 reporter activity (2.5 uM)), 21.7%; in assay [5] (read-out: V503 reporter activity ([…]), […], % increased luciferase activity over basal level, read-out: V503 reporter activity (7.5 uM)), 42.9%.

Regarding `COc1ccc(S(=O)(=O)N(CC(=O)N2CCCCC2)c2cc(OC)ccc2OC)cc1` [SW207999], the “Induction … in words” value in assay [1] was “active in inducing the 15-PGDH-luciferase reporter”. Besides, the “Inhibition … in words” value in assay [2] is on record as “lesser inhibitory activity at high concentration”. Further, the inhibition at […] in assay [2] (setting [6]) is -0.86%; in assay [2] (setting [7]), 3.34%.

Turning to `COc1ccc(N(CC(=O)Nc2ccccc2Br)S(=O)(=O)c2ccccc2[N+](=O)[O-])c(OC)c1` [compound 1002065], the activation at […] in assay [3] (setting [15]) is 7.38%; in assay [3] (setting [16]), 18.6%; in assay [4] (setting [17]) it was 15.2%; in assay [4] (setting [18]), 9.9%; in assay [5] (setting [19]) it was 38.1%; in assay [5] (setting [20]), 52.5%.

Take `COc1ccc(S(=O)(=O)N(CC(=O)Nc2ccccc2Br)c2cc(Cl)ccc2OC)cc1OC` [compound 771081]: the activation at […] is -14.2% in assay [3] (setting [15]); 7.58% in assay [3] (setting [16]); 15.4% in assay [4] (setting [17]); 5.74% in assay [4] (setting [18]); 31.9% in assay [5] (setting [19]); 51.7% in assay [5] (setting [20]).

As for `COc1ccc(C)cc1N(CC(=O)Nc1cccnc1)S(=O)(=O)c1ccccc1` [526206-05-3], in assay [3] ([…]), the percent reporter induction over basal at […] is 114%. The activation at […] in assay [3] (setting [8]) came to 23.1%; in assay [4] (setting [9]) it was 68.5%; in assay [4] (setting [10]), 146%; in assay [5] (setting [11]), 110%; in assay [5] (setting [12]), 198%. Also, the figures for the inhibition at […] in assay [2] (setting [13]) and in assay [2] (setting [14]) were 42% and 70.2%, respectively.

Regarding `COc1ccc(S(=O)(=O)N(CC(=O)Nc2cccnc2)c2cc(OC)ccc2OC)cc1` [SW202940], the “Induction … in words” value in assay [1] is recorded as “active in inducing 15-PGDH-luciferase reporter activity”. Further, the values for the inhibition at […] in assay [2] (setting [6]) and in assay [2] (setting [7]) were 24.3% and 63.3%, respectively.

For the molecule `COc1ccc(S(=O)(=O)N(CC(=O)Nc2ccc(Br)cc2)c2cc(Cl)ccc2OC)cc1OC` [compound 771432], the activation at […] in assay [3] (setting [15]) was -7.11%; in assay [3] (setting [16]) it was -3.13%; in assay [4] (setting [17]) it was 4.24%; in assay [4] (setting [18]) it was 3.86%; in assay [5] (setting [19]) it was 33.7%; in assay [5] (setting [20]), 42.8%.

Consider `COc1ccc(OC)c(N(CC(=O)Nc2cc(C)no2)S(=O)(=O)c2ccccc2)c1` [SW203704], for which the “Induction … in words” value in assay [1] is given as “active in inducing the 15-PGDH-luciferase reporter”. Also, the inhibition at […] in assay [2] (setting [6]) was 4.19%; in assay [2] (setting [7]) it was 7.26%.
